Measured values reported in US9695133B2, “Quinazolinone-based oncogenic-RAS-selective lethal compounds and their use” (THE TRUSTEES OF COLUMBIA UNIVERSITY IN THE CITY OF NEW YORK, priority 2012, dated 2017).

Test system: HT-1080 cells
Experiment: Metabolite profiling (LC-MS/MS) upon erastin treatment
Type: cell-based, human
Details: 5 μg/mL erastin 5 h
Experimental: 2 million HT-1080 cells were seeded in 10 cm culture dishes. […] 4 mL of cold 80% methanol was added to the cell monolayer to extract polar metabolites using a cell scraper. The cell lysate/methanol mixture was transferred to a 15 mL tube and centrifuged at 2,000×g at 4° C. for 10 minutes to pellet debris and proteins. The supernatant was transferred to a new tube and stored at −80° C. for liquid chromatography-mass spectrometry/mass spectrometry (LC-MS/MS) analysis. For lipid extract preparation, 3 mL of cold 100% isopropanol was added to the cell monolayer to scrape out cells. The resulting cell lysate/isopropanol mixture was transferred to a new 15 mL tube and centrifuged at 2,000×g at 4° C. for 10 minutes. The cleared supernatant was transferred to a new tube and stored at −20° C. for LC-MS/MS analysis.
The metabolite extract was subjected to LC-MS/MS analysis to determine the quantity of each metabolite in each sample.

## CCOc1ccccc1-n1c(C(C)N2CCN(C(=O)COc3ccc(Cl)cc3)CC2)nc2ccccc2c1=O (stereo not drawn) [erastin]
  C36:1 DAG Erastin/DMSO: 0.9334
  C36:1 DAG log2 (Erastin/DMSO): −0.09938
  C36:1 PC Erastin/DMSO: 0.6286
  C36:1 PC log2 (Erastin/DMSO): −0.6697
  C36:1 PE Erastin/DMSO: 0.9953
  C36:1 PE log2 (Erastin/DMSO): −0.006813
  C36:2 DAG Erastin/DMSO: 0.9163
  C36:2 DAG log2 (Erastin/DMSO): −0.1261
  C36:2 PC Erastin/DMSO: 0.8729
  C36:2 PC log2 (Erastin/DMSO): −0.1962
  C36:2 PE Erastin/DMSO: 0.9352
  C36:2 PE log2 (Erastin/DMSO): −0.09672
  C36:2 PI Erastin/DMSO: 1.021
  C36:2 PI log2 (Erastin/DMSO): 0.02948
  C36:3 DAG Erastin/DMSO: 1.092
  C36:3 DAG log2 (Erastin/DMSO): 0.1266
  C36:3 PC Erastin/DMSO: 0.9251
  C36:3 PC log2 (Erastin/DMSO): −0.1124
  C36:4 PC Erastin/DMSO: 0.9027
  C36:4 PC log2 (Erastin/DMSO): −0.1477
  C36:4 PI Erastin/DMSO: 1.395
  C36:4 PI log2 (Erastin/DMSO): 0.4801
  C38:2 PC Erastin/DMSO: 0.8405
  C38:2 PC log2 (Erastin/DMSO): −0.2507
  C38:3 PC Erastin/DMSO: 0.6597
  C38:3 PC log2 (Erastin/DMSO): −0.6001
  C38:4 PC Erastin/DMSO: 0.6814
  C38:4 PC log2 (Erastin/DMSO): −0.5533
  C38:4 PI Erastin/DMSO: 0.9823
  C38:4 PI log2 (Erastin/DMSO): −0.02583
  C38:5 PC Erastin/DMSO: 0.8836
  C38:5 PC log2 (Erastin/DMSO): −0.1786
  C38:6 PC Erastin/DMSO: 0.9708
  C38:6 PC log2 (Erastin/DMSO): −0.0428
  C44:0 TAG Erastin/DMSO: 0.9683
  C44:0 TAG log2 (Erastin/DMSO): −0.04648
  C44:1 TAG Erastin/DMSO: 1.639
  C44:1 TAG log2 (Erastin/DMSO): 0.7127
  C46:0 TAG Erastin/DMSO: 0.9424
  C46:0 TAG log2 (Erastin/DMSO): −0.08557
  C46:1 TAG Erastin/DMSO: 1.171
  C46:1 TAG log2 (Erastin/DMSO): 0.2276
  C46:2 TAG Erastin/DMSO: 1.542
  C46:2 TAG log2 (Erastin/DMSO): 0.6247
  C48:0 TAG Erastin/DMSO: 1.098
  C48:0 TAG log2 (Erastin/DMSO): 0.1354
  C48:1 TAG Erastin/DMSO: 1.059
  C48:1 TAG log2 (Erastin/DMSO): 0.08209
  C48:2 TAG Erastin/DMSO: 1.121
  C48:2 TAG log2 (Erastin/DMSO): 0.1647
  C48:3 TAG Erastin/DMSO: 1.52
  C48:3 TAG log2 (Erastin/DMSO): 0.6042
  C50:0 TAG Erastin/DMSO: 0.9625
  C50:0 TAG log2 (Erastin/DMSO): −0.05513
  C50:1 TAG Erastin/DMSO: 1.011
  C50:1 TAG log2 (Erastin/DMSO): 0.01634
  C50:2 TAG Erastin/DMSO: 1.073
  C50:2 TAG log2 (Erastin/DMSO): 0.1023
  C50:3 TAG Erastin/DMSO: 1.241
  C50:3 TAG log2 (Erastin/DMSO): 0.3115
  C50:4 TAG Erastin/DMSO: 1.682
  C50:4 TAG log2 (Erastin/DMSO): 0.7502
  C50:5 TAG Erastin/DMSO: 1.277
  C50:5 TAG log2 (Erastin/DMSO): 0.3528
  C52:0 TAG Erastin/DMSO: 1.041
  C52:0 TAG log2 (Erastin/DMSO): 0.05755
  C52:1 TAG Erastin/DMSO: 0.897
  C52:1 TAG log2 (Erastin/DMSO): −0.1568
  C52:2 TAG Erastin/DMSO: 0.9964
  C52:2 TAG log2 (Erastin/DMSO): −0.005196
  C52:3 TAG Erastin/DMSO: 1.124
  C52:3 TAG log2 (Erastin/DMSO): 0.168
  C52:4 TAG Erastin/DMSO: 1.305
  C52:4 TAG log2 (Erastin/DMSO): 0.3844
  C52:5 TAG Erastin/DMSO: 1.279
  C52:5 TAG log2 (Erastin/DMSO): 0.355
  C52:6 TAG Erastin/DMSO: 1.602
  C52:6 TAG log2 (Erastin/DMSO): 0.6796
  C54:1 TAG Erastin/DMSO: 0.8628
  C54:1 TAG log2 (Erastin/DMSO): −0.2129
  C54:2 TAG Erastin/DMSO: 0.8696
  C54:2 TAG log2 (Erastin/DMSO): −0.2016
  C54:3 TAG Erastin/DMSO: 0.9692
  C54:3 TAG log2 (Erastin/DMSO): −0.04517
  C54:4 TAG Erastin/DMSO: 1.178
  C54:4 TAG log2 (Erastin/DMSO): 0.2363
  C54:5 TAG Erastin/DMSO: 1.315
  C54:5 TAG log2 (Erastin/DMSO): 0.3952
  C54:6 TAG Erastin/DMSO: 1.267
  C54:6 TAG log2 (Erastin/DMSO): 0.3411
  C54:7 TAG Erastin/DMSO: 1.062
  C54:7 TAG log2 (Erastin/DMSO): 0.08689
  C54:8 TAG Erastin/DMSO: 0.9067
  C54:8 TAG log2 (Erastin/DMSO): −0.1413
  C54:9 TAG Erastin/DMSO: 1.331
  C54:9 TAG log2 (Erastin/DMSO): 0.4129
  C54:10 TAG Erastin/DMSO: 0.8851
  C54:10 TAG log2 (Erastin/DMSO): −0.1761
  C56:2 TAG Erastin/DMSO: 0.9703
  C56:2 TAG log2 (Erastin/DMSO): −0.04354
  C56:3 TAG Erastin/DMSO: 0.8103
  C56:3 TAG log2 (Erastin/DMSO): −0.3035
  C56:4 TAG Erastin/DMSO: 0.9505
  C56:4 TAG log2 (Erastin/DMSO): −0.07326
  C56:5 TAG Erastin/DMSO: 1.134
  C56:5 TAG log2 (Erastin/DMSO): 0.1814
  C56:6 TAG Erastin/DMSO: 1.047
  C56:6 TAG log2 (Erastin/DMSO): 0.06693
  C56:7 TAG Erastin/DMSO: 1.062
  C56:7 TAG log2 (Erastin/DMSO): 0.08653
  C56:8 TAG Erastin/DMSO: 1.178
  C56:8 TAG log2 (Erastin/DMSO): 0.2368
  C56:9 TAG Erastin/DMSO: 0.9865
  C56:9 TAG log2 (Erastin/DMSO): −0.01961
  C56:10 TAG Erastin/DMSO: 0.9129
  C56:10 TAG log2 (Erastin/DMSO): −0.1315
  C58:6 TAG Erastin/DMSO: 1.047
  C58:6 TAG log2 (Erastin/DMSO): 0.06641
  C58:7 TAG Erastin/DMSO: 1.071
  C58:7 TAG log2 (Erastin/DMSO): 0.09945
  C58:8 TAG Erastin/DMSO: 1.118
  C58:8 TAG log2 (Erastin/DMSO): 0.1603
  C58:9 TAG Erastin/DMSO: 1.176
  C58:9 TAG log2 (Erastin/DMSO): 0.2336
  CMP Erastin/DMSO: 0.9376
  CMP log2 (Erastin/DMSO): −0.09295
  DHAP Erastin/DMSO: 1.227
  DHAP log2 (Erastin/DMSO): 0.2955
  F1P Erastin/DMSO: 0.9652
  F1P log2 (Erastin/DMSO): −0.05103
  F16DP/F26DP/G16DP Erastin/DMSO: 1.303
  F16DP/F26DP/G16DP log2 (Erastin/DMSO): 0.3816
